Test system: murine Colo-26 tumors
Experiment: MR imaging of Colo-26 tumors 30 min after P-PDT
Type: in vivo
Details: P-PDT: 0.4 μmol/kg HPPH i.v., 24 h later 6 μmol/kg VBBO i.v., 3 h later 500 J/cm^2 at 619 nm; imaged 30 min after P-PDT; especially in the treated tumor
Protocol: FIG. 1 is a set of MR images of Colo-26 tumors taken 30 minutes after P-PDT to the tumor on the left of each image.
FIG. 1 illustrates the response of the vasculature in murine Colo-26 tumors to P-PDT. […] In this case, P-PDT involved i.v. injection of 0.4 μmol/kg HPPH (2-[1-hexyl-oxyethyl]-2-devinyl pyropheophoribde-a), followed 24 h later by i.v. injection of 6 μmol/kg VBBO (Victoria Blue-BO), followed 3 h later by local exposure of the tumor to 500 J/cm^2 of light at a wavelength of 619 nm. In Frame A, one can observe that the T2 weighted MRI image of the P-PDT treated tumor is markedly brighter than the control, which is believed to be due to increased water content because of enhanced edema and permeability in that tumor. Image intensity is further heightened by carbogen breathing as shown in Frame B of FIG. 1. […] Changes in signal intensity originate with the magnetic susceptibility of hemoglobin and are dependent on its oxygenation status. Oxyhemoglobin is diamagnetic, while deoxyhemoglobin is paramagnetic. The magnetic susceptibility differences between deoxyhemoglobin and surrounding tissue water create local field gradients that cause phase dispersion of nearby water protons, resulting in a loss of MR signal intensity. […]

CCCCCCOC(C)c1c(C)c2cc3nc(c4c5[nH]c(cc6nc(cc1[nH]2)C(C)=C6CC)c(C)c5C(=O)C4)[C@@H](CCC(=O)O)[C@@H]3C (stereo partly shown) [HPPH, 2-[1-hexyl-oxyethyl]-2-devinyl pyropheophoribde-a]
increase in MR image intensity during carbogen breathing: up to 40%

Reference: US20040010218A1, “Photodynamic therapy for the enhancement of vascular permeability to aid in drug delivery to diseased tissues” (priority 2002, published 2004)
